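Dose response: 5 concentrations. Exposure: 48 h. Format: 96-well plates. Endpoint: linear interpolation; highest concentration if not reached. GI50: concentration for 50% inhibition of growth.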 Calls of active or inactive are those of the source. Cut-off read from the data, not from the text of the source: active = GI50 up to about 1.1 µM and inactive = higher.
Experiments:
Assay in all cases: NCI-60 cell line screen, 48 h
UO-31 = test system: UO-31
NCI-H522 = test system: NCI-H522
A549 = test system: A549
NCI-H460 = test system: NCI-H460
SNB-75 = test system: SNB-75
MOLT-4 = test system: MOLT-4
LOX IMVI = test system: LOX IMVI
A498 = test system: A498
NCI-H23 = test system: NCI-H23
SF-539 = test system: SF-539
HT-29 = test system: HT-29
K562 = test system: K562
MDA-N = test system: MDA-N
RPMI-8226 = test system: RPMI-8226
TK-10 = test system: TK-10
KM12 = test system: KM12
RXF 393 = test system: RXF 393
BT-549 = test system: BT-549
HCT-116 = test system: HCT-116
MDA-MB-231 = test system: MDA-MB-231

Measured: GI50

CCOc1ccc(/N=N/C2C(=O)N(C(=O)CC(=O)Nc3ccccc3OC)N=C2C)cc1 (centres undefined)
inactive: UO-31 > 71.1 µM | NCI-H522 11 µM | A549 > 43.3 µM | NCI-H460 13.8 µM | MOLT-4 > 22.3 µM | LOX IMVI 29.7 µM | A498 > 30.1 µM | NCI-H23 38 µM | SF-539 7.83 µM | HT-29 4.13 µM | K562 13.2 µM | MDA-N 2.52 µM | RPMI-8226 45 µM | TK-10 > 33.1 µM | KM12 4.35 µM | RXF 393 12.5 µM | BT-549 13.2 µM | HCT-116 8.63 µM | MDA-MB-231 > 36.5 µM
active: SNB-75 0.916 µM

CCOP(=O)(/C=C/n1cc(C)c(=O)[nH]c1=O)OCC
inactive: NCI-H522 > 100 µM | A549 > 100 µM | NCI-H460 > 100 µM | SNB-75 > 100 µM | MOLT-4 > 100 µM | LOX IMVI > 100 µM | A498 > 100 µM | NCI-H23 > 100 µM | SF-539 > 100 µM | HT-29 > 100 µM | K562 > 100 µM | MDA-N > 100 µM | RPMI-8226 > 100 µM | TK-10 > 100 µM | KM12 > 100 µM | RXF 393 > 100 µM | BT-549 > 100 µM | HCT-116 > 100 µM | MDA-MB-231 > 100 µM

O=C1C(Br)=Cc2c(Cl)sc(Cl)c21
active: MOLT-4 0.515 µM | K562 1.07 µM | RPMI-8226 0.668 µM
inactive: UO-31 2.82 µM | NCI-H522 5.16 µM | A549 24.6 µM | NCI-H460 18.3 µM | SNB-75 13.3 µM | LOX IMVI 2.36 µM | A498 23.9 µM | NCI-H23 8.85 µM | SF-539 4.24 µM | HT-29 4.58 µM | MDA-N 2.44 µM | TK-10 2.17 µM | KM12 6.5 µM | RXF 393 2.46 µM | BT-549 22.2 µM | HCT-116 2.03 µM | MDA-MB-231 3.13 µM

CCOC(=O)CSc1nnc(CSc2nc(-c3ccccc3)c(-c3ccccc3)[nH]2)n1-c1ccccc1
inactive: UO-31 18.2 µM | NCI-H522 > 87.7 µM | A549 > 100 µM | NCI-H460 > 100 µM | SNB-75 > 100 µM | MOLT-4 > 49.8 µM | LOX IMVI > 61.5 µM | A498 17.9 µM | NCI-H23 > 100 µM | SF-539 20.7 µM | HT-29 48.8 µM | K562 > 100 µM | MDA-N 75.3 µM | RPMI-8226 > 80.4 µM | TK-10 17 µM | KM12 > 75.9 µM | RXF 393 22.5 µM | BT-549 > 100 µM | HCT-116 > 56.5 µM | MDA-MB-231 34.5 µM

O=C(CC1(O)C(=O)Nc2c(Cl)cc(Cl)cc21)c1cccc([N+](=O)[O-])c1 (centres undefined)
inactive: UO-31 38.6 µM | NCI-H522 67 µM | A549 39.5 µM | NCI-H460 39.9 µM | SNB-75 15.2 µM | MOLT-4 19.8 µM | LOX IMVI 17 µM | A498 27.9 µM | NCI-H23 19.4 µM | SF-539 27.9 µM | HT-29 28.9 µM | K562 19.8 µM | MDA-N 18.9 µM | RPMI-8226 28.2 µM | TK-10 > 55.8 µM | KM12 24.5 µM | RXF 393 28.6 µM | BT-549 61 µM | HCT-116 19.8 µM | MDA-MB-231 29.9 µM

COc1cccc2c1C(=O)c1c(O)c3c(c(O)c1C2=O)CC(O)(C(=O)CO)CC3OC1CC(N2CCOCC2C#N)C(O)C(C)O1 (centres undefined)
active: UO-31 > 0.01 µM | NCI-H522 < 0.0001 µM | A549 < 0.0001 µM | NCI-H460 < 0.0001 µM | SNB-75 > 0.01 µM | MOLT-4 < 0.0001 µM | LOX IMVI < 0.0001 µM | A498 > 0.01 µM | NCI-H23 < 0.0001 µM | SF-539 < 0.0001 µM | HT-29 < 0.0001 µM | K562 < 0.0001 µM | MDA-N < 0.0001 µM | RPMI-8226 < 0.0001 µM | TK-10 < 0.0001 µM | KM12 < 0.0001 µM | RXF 393 > 0.01 µM | BT-549 < 0.0001 µM | HCT-116 < 0.0001 µM | MDA-MB-231 < 0.0001 µM

CCN(CC)C(=S)SS(=O)(=O)c1ccccc1[N+](=O)[O-]
inactive: UO-31 14.5 µM | A549 14.7 µM | NCI-H460 25.1 µM | SNB-75 76.2 µM | LOX IMVI 17.3 µM | A498 > 56.6 µM | NCI-H23 > 54 µM | SF-539 19.9 µM | HT-29 16.9 µM | K562 11.7 µM | MDA-N 38.9 µM | RPMI-8226 15.2 µM | TK-10 31.9 µM | KM12 > 35.4 µM | RXF 393 20.8 µM | BT-549 > 51.2 µM | HCT-116 18.2 µM | MDA-MB-231 18.1 µM
active: NCI-H522 0.404 µM | MOLT-4 0.415 µM

Source: ChEMBL document CHEMBL1201862, “PubChem BioAssay data set” (2004)
